Results published in a melting point compilation (Tetko et al.).

Compound	melting point [°C]
CS(=O)(=O)c1cc(S(N)(=O)=O)ccc1F	202 to 204
Clc1cc2nc[nH]c2nc1Cl	119 to 121
Cc1cc(=O)n(CC(=O)NC(C)C)c(C)c1C(=O)O	229 to 231
CC1CCCN(S(=O)(=O)c2ccc(CN)cc2)C1 (centres undefined)	92 to 94
Cc1ccc(N2CCCC(Br)C2=O)cc1 (centres undefined)	96 to 98
Brc1ccc(-c2cscn2)cc1	69 to 71
OC(CC1CCCCCN1)c1cccs1 (centres undefined)	60 to 62
N#Cc1ccc(CN2CCNCC2)cc1	214 to 216
CC(=O)c1cc2cc(C)c(C)cc2o1	89 to 91
Nc1nc(Cl)ncc1[N+](=O)[O-]	209 to 211
CC(C)C(NC(N)=O)C(=O)O (centres undefined)	203 to 207
CC1CCN(Cc2nc3sc4c(c3c(=O)[nH]2)CCC4)CC1	256 to 258
Nc1c(Oc2ccc(Cl)cc2)ccc2ncccc12	124 to 126
Cc1cc2ncn(Cc3ccc(Cl)cc3)c2cc1C	143 to 145
Cc1cc(C(=O)O)c(C)n1-c1nccs1	173 to 175
ClCc1nc2cc(Cl)ccc2s1	99 to 101
O=c1c(Cl)c(Cl)cnn1-c1ccc(S(=O)(=O)Cl)cc1	144 to 146
CSc1cc(Br)ccc1C=O	81 to 83
CCc1cc2oc(=O)cc(CCl)c2cc1Cl	170 to 172
CC(=O)NC=C(Cl)Cl	85 to 87
CC(C)c1cc(N)on1	33 to 35

Compound	melting point [°C]
O=C(O)c1c[nH]cc1-c1cc(Cl)c2c(c1)OCCO2	209 to 211
NS(=O)(=O)c1ccc(S(=O)(=O)Cl)cc1	144 to 146
O=C(O)CC1COC(=O)C1 (centres undefined)	83 to 85
Cc1c(N)cccc1CN1CCSCC1	80 to 82
Cc1cn(-c2ncccc2F)nc1N	131 to 133
NCc1cc(Br)c[nH]1	105 to 107
O=c1[nH]c(-c2ncccn2)no1	221 to 223
N#CCS(N)(=O)=O	100 to 102
Cc1cc(C(=O)Cl)sc1C	59 to 61
Cc1ccc(CN(C)C)cc1N	66 to 68
N#Cc1c(Cl)nc2sccn12	174 to 176
Cc1nn(C)c(C)c1CC(N)=O	175 to 177
O=c1c2ccccc2nc(S)n1-c1ccc(Cl)cc1	336 to 338
O=S(=O)(c1ccc(F)cc1F)N1CCNCC1	93 to 95
Cc1nn(C)c2nc(C3CC3)cc(C(=O)O)c12	242 to 244
NC(=O)N1CCC(C(=O)O)CC1	193 to 195
Cc1ccc([N+](=O)[O-])cc1C(C)Cl (centres undefined)	44 to 46
Cc1ccc(S(=O)(=O)N2CCN(C(=O)C(C)Cl)CC2)cc1 (centres undefined)	153 to 155
c1cn(C2CCNCC2)cn1	135 to 137
O=C(O)c1cnc(Cl)nc1Cl	96 to 98
CNC1CCS(=O)(=O)c2ccc(Br)cc21 (centres undefined)	108 to 110

Compound	melting point [°C]
NC(=NO)C1CCCCCC1	87 to 89
Cc1nn(CC(=O)O)c(C)c1/C=N/O	203 to 205
O=Cc1ccc(-c2ccc(Br)cc2)s1	110 to 112
Cc1ccc(N)cc1S(C)(=O)=O	72 to 74
Cc1n[nH]c(C2CNCCO2)n1 (centres undefined)	104 to 106
Cc1csc(=O)n1CCBr	47 to 51
Oc1ncc(F)cc1I	119 to 121
Nc1ccc(I)cc1O	104 to 106
NC(=NO)c1ccc(N2CCCCC2)cc1	169 to 171
O=C1CC(c2cccnc2)CN1 (centres undefined)	69 to 71
Cc1c(C(=O)O)cnn1C(C)C	142 to 144
CCCC(C(=O)O)N1CCN(C(=O)OC(C)(C)C)CC1 (centres undefined)	149 to 151
Cc1ccc(N)cc1-n1cnnn1	113 to 115
CCN(CC)S(=O)(=O)c1ccc(N2CCCCC2)c(C(=O)O)c1	157 to 159
O=C(CCl)N1CCN(c2ncccn2)CC1	100 to 102
CC1=CC=CC(=C2Nc3cc(F)ccc3N2C(C)C)C1=N	185 to 187
CC(O)C(NC(=O)C(C)(C)C)C(=O)O (centres undefined)	156 to 158
O=C(O)C1CC(=O)N(c2nccs2)C1 (centres undefined)	184 to 186
Cc1ccc(-n2c(S)nnc2-c2ccc(Cl)cc2)cc1	141 to 143
O=C(O)CN(CCCCCCN(CC(=O)O)CC(=O)O)CC(=O)O	237 to 241

Results, then the compound that gave them:

melting point [°C]	Compound
115 to 117	CC(=O)c1ccc(-c2ccccc2)s1
169 to 171	CC(C)(C)OC(=O)Nc1ccc(C=O)cn1
140 to 142	O=C(O)CCc1csc2ccccc12
257 to 259	CN(C)S(=O)(=O)c1cc(C(=O)O)ccc1Br
75 to 77	N#Cc1cc(N)ccc1Oc1ccc(C(F)(F)F)cc1
109 to 111	NS(=O)(=O)c1cccnc1
83 to 85	CN1CCC(Nc2cccc3ccccc23)CC1
226 to 228	CCOC(=O)c1c(N)n(CCO)c2nc3ccccc3nc12
254 to 256	CSc1[nH]c(=O)c(C(=O)O)cc1C#N
135 to 137	N#Cc1ccc2ncccc2c1
104 to 106	CC(C)C(Br)C(=O)NCc1ccccc1F (centres undefined)
61 to 63	Nc1ccccc1SCC(O)c1ccccc1 (centres undefined)
141 to 143	Cc1ccc2c(c1)C(=O)N(C(C)C(=O)O)C2=O (centres undefined)
88 to 90	CC(Cl)C(=O)NCc1ccccc1Cl (centres undefined)
99 to 101	COc1ccc2nc(C)cc(Cl)c2c1
127 to 129	CNC1(CO)CCC(c2ccccc2)CC1 (centres undefined)
58 to 60	C=CCOc1ccccc1C(=O)O
197 to 199	O=C(O)CNC(=O)c1c(F)cccc1Cl
64 to 68	Cc1cc(C(=O)CCl)c(C)n1Cc1ccccc1
134 to 138	COc1ccc(-c2[nH]c3ccc(F)cc3c2CCC(=O)O)cc1
75 to 77	O=Cc1ccc(OCc2cccnc2)cc1

melting point [°C]	Compound
200 to 202	Cc1nc2ccccc2c2c(N)c3ccccc3n12
139 to 141	COC(=O)c1ccc(S(N)(=O)=O)c([N+](=O)[O-])c1
108 to 110	CNC(=O)c1ccc(OC)c(N)c1
91 to 93	COC(=O)C1CCN(c2nc3ccccc3s2)CC1
195 to 197	NC(=O)c1cccc(Oc2ccc(N)cn2)c1
154 to 156	O=C(O)c1cc(S)ccc1Cl
144 to 146	CC(C)Cc1ccc(C(=O)O)cc1
224 to 226	Cc1nnc(S)n1-c1ccccc1
126 to 128	Cc1ccc(C(C)C)c(OCC(=O)O)c1
171 to 173	CC(CC(=O)O)c1ccncc1 (centres undefined)
118 to 122	CCOc1ccc(-n2c(C)cc(C(=O)CCl)c2C)cc1
164 to 166	CNS(=O)(=O)c1ccc(C(=O)O)o1
116 to 118	CCC(=O)Nc1cccc(N)c1C
93 to 95	Cc1ccoc1C(=O)CC#N
158 to 160	O=C(O)CSc1nc2ccccc2o1
125 to 130	Nc1cccc(-c2cn3cccnc3n2)c1
125 to 127	N#CCC(=O)NCc1ccccc1
218 to 220	O=C(O)CN1C(=O)c2ccccc2S1(=O)=O
172 to 174	NS(=O)(=O)c1ccc(Cl)c(NC(=O)CCl)c1
75 to 77	CC(C(=O)O)c1cccc(Cl)c1 (centres undefined)
119 to 121	CCN(CC)S(=O)(=O)c1ccc(OC)c(C(=O)O)c1

melting point [°C]	Compound
154 to 156	O=C(O)c1nccnc1Sc1ccccc1
110 to 112	O=C(Cc1ccccc1)c1nc2ccccc2s1
228 to 230	COc1nc(O)c2ccccc2n1
124 to 126	NNC(=S)NCCc1ccccn1
118 to 120	O=C(O)CCSc1ccccc1F
119 to 121	COc1ccc2c(-c3ccccc3)cc(NN)nc2c1
199 to 201	Cn1c(C(=O)O)cc2cc(C(F)(F)F)ccc21
63 to 65	CCNc1ccc(S(=O)(=O)C(F)(F)F)cc1
252 to 254	O=c1[nH]c(=O)n(Cc2ccccc2)c2ncn(C3CCCC3)c12
260 to 262	O=c1cc(-c2ccccc2)c2cc(Cl)c(O)cc2o1
134 to 136	O=C(O)C1CCCCN1C(=O)c1ccc(Br)c(F)c1 (centres undefined)
247 to 249	Cc1ccc(-n2c(-c3ccccc3)cnc2S)c(C)c1
203 to 205	N#Cc1ccc2[nH]cnc2c1
59 to 61	CCCCCCOC(=O)c1ccc(N)cc1
201 to 203	COc1ccc(C(=O)O)cc1OCc1ccncc1
156 to 158	N#Cc1c(F)cccc1Oc1ccc(N)cc1
218 to 220	O=C(O)c1ccc(CS(=O)(=O)C(F)F)cc1
246 to 248	CCOC(=O)c1ncn(-c2ccc(C)cc2)c1N
160 to 162	CC(C)(C)c1ccc(C2(C(=O)O)CCCCC2)cc1
112 to 116	NC(=S)CC(=O)NCc1ccccc1
201 to 203	COc1ccc(-c2ccc(C(=O)O)c(F)c2)cc1

melting point [°C]	Compound
147 to 149	Nc1ccc(Cl)cc1C(=O)NC1CC1
69 to 71	N#Cc1cccc(COc2ccc(N)cc2F)c1
139 to 141	Cc1ccc(NC(=O)CO)cc1
329 to 331	O=C(O)c1cc(-c2ccc(C(F)(F)F)cc2)no1
76 to 78	Cc1ccc(C#N)cc1N
106 to 108	COC(=O)c1cc(N2CCOCC2)ccc1N
123 to 125	O=C(NCC1CCCNC1)Nc1cccc(F)c1 (centres undefined)
129 to 131	O=C1C=CC(=O)N1c1cccc([N+](=O)[O-])c1
154 to 156	Nc1nc(Sc2ccccc2)ns1
68 to 70	OC(CNCc1ccccc1)c1ccco1 (centres undefined)
157 to 159	CC(=O)Oc1ccc2ccc(O)cc2c1
157 to 159	Clc1ccc(-c2ccccc2)nn1
166 to 168	O=C(O)Cc1coc(-c2ccc(F)cc2)n1
162 to 164	Nc1cc([N+](=O)[O-])ccc1Nc1ccc(F)cc1
70 to 72	O=C(Nc1ccc(Br)cc1Cl)OCC(F)(F)F
172 to 174	Cc1cnn(CC(=O)O)c1
156 to 158	CS(=O)c1ccccc1N (centres undefined)
59 to 61	COc1ccccc1C(=O)c1ccccc1Cl
62 to 64	COc1ccc(Oc2c(F)cc(CCl)cc2F)cc1
